In US6472530B1, “Benzo-fused dithiepino[6,5-b]pyridines, and related compositions and methods” (Ortho-McNeil Pharmaceutical, Inc., priority 1999, dated 2002):

The compounds below were run against T1, calcium channel (Oryctolagus cuniculus, UniProt P15381) (assay: Assay for Inhibition of Nitrendipine Binding (3H-nitrendipine, heart membranes)). Settings: not given.
T1 construct: from tissue; host or cells: rabbit heart membrane preparation
Design: species or system rabbit
Protocol: Assay for Inhibition of Nitrendipine Binding
Female, New Zealand white rabbits (1-2 kg) are sacrificed by cervical dislocation, and the heart is immediately removed, cleaned and chopped into small pieces. The tissue is homogenized in 5×times volume of 0.05M Hepes buffer, pH 7.4. The homogenate is centrifuged at 4000 g for 10 minutes, and the supernatant is re-centrifuged at 42,000×g for 90 minutes. The resulting membrane pellet is resuspended (0.7 ml/g weight) in 0.05M Hepes, pH 7.4 and stored at […] until used. Each tube of the binding assay contains ^3H-nitrendipine (0.05-0.50 nM), buffer, membranes (0.10 ml), and test compound in a total volume of 1.0 ml. After 90 minutes at 4° C., the bound nitrendipine is separated from the unbound by filtration on Whatman GF/C filters. After rinsing, the filters are dried and counted in a liquid scintillation counter.
Non-specific binding of ^3H-nitrendipine (that amount bound in the presence of excess unlabelled nitrendipine) is subtracted from the total bound to obtain specifically bound radiolabeled nitrendipine. The amount of specifically bound nitrendipine in the presence of a test compound is compared to that amount bound in the absence of a compound. A percent displacement (or inhibition) can then be calculated.

T1 sequence (P15381 whole entry, other chains not shown): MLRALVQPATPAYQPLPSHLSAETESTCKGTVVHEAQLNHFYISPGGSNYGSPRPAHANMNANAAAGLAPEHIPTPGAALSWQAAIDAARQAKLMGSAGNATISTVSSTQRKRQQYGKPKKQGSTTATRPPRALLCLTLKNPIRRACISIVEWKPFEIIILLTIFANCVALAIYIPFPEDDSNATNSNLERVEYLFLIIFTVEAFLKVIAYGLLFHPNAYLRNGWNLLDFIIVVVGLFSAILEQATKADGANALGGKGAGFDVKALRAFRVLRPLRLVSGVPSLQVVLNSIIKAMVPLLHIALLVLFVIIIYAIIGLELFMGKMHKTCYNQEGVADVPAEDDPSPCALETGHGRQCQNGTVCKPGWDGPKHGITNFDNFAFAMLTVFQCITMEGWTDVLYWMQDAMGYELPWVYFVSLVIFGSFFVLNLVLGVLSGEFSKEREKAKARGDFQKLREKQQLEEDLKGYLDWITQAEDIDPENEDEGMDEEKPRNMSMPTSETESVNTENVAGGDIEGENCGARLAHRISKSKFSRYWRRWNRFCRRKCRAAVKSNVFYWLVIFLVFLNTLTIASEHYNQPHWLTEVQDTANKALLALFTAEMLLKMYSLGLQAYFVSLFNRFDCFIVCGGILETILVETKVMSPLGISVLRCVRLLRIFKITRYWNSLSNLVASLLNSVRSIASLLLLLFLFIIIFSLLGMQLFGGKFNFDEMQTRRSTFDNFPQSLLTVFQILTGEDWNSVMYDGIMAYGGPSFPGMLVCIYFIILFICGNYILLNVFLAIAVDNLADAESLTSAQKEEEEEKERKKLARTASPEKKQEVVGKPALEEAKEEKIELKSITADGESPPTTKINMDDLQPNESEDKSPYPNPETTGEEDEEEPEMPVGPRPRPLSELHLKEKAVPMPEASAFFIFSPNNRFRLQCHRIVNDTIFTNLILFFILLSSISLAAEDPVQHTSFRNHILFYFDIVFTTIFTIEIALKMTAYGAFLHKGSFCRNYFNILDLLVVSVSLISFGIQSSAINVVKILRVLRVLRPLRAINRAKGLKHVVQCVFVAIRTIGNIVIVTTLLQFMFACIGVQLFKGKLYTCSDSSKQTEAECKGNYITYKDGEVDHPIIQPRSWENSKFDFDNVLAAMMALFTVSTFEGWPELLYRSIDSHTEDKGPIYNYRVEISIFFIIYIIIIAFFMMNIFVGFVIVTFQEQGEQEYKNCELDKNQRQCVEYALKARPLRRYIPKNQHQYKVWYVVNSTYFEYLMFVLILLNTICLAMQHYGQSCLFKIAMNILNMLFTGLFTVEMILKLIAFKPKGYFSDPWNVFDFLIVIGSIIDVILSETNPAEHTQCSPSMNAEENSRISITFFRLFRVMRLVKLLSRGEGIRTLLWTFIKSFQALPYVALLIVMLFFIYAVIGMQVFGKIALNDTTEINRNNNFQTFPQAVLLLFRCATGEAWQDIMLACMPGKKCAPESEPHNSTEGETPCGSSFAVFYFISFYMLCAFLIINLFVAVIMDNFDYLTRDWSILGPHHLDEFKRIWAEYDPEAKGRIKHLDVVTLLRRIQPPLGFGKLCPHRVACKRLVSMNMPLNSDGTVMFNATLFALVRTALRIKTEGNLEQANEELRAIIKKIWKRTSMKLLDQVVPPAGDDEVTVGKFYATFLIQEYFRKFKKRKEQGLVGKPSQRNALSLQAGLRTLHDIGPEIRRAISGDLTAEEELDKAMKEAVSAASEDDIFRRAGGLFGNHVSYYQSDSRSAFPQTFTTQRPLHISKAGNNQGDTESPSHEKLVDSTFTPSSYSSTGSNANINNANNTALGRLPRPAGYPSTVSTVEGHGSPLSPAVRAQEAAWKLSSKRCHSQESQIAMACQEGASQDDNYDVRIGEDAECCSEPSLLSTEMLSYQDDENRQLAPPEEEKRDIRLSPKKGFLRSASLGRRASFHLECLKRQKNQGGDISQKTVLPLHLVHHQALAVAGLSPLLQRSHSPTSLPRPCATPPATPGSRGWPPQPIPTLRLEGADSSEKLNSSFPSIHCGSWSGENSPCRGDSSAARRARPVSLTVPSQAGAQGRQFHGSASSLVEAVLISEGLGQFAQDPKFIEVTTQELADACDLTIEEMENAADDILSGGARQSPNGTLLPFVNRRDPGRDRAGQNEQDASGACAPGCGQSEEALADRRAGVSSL
T1 sequence (P13806 27-960 partner limits assumed, other chains not shown): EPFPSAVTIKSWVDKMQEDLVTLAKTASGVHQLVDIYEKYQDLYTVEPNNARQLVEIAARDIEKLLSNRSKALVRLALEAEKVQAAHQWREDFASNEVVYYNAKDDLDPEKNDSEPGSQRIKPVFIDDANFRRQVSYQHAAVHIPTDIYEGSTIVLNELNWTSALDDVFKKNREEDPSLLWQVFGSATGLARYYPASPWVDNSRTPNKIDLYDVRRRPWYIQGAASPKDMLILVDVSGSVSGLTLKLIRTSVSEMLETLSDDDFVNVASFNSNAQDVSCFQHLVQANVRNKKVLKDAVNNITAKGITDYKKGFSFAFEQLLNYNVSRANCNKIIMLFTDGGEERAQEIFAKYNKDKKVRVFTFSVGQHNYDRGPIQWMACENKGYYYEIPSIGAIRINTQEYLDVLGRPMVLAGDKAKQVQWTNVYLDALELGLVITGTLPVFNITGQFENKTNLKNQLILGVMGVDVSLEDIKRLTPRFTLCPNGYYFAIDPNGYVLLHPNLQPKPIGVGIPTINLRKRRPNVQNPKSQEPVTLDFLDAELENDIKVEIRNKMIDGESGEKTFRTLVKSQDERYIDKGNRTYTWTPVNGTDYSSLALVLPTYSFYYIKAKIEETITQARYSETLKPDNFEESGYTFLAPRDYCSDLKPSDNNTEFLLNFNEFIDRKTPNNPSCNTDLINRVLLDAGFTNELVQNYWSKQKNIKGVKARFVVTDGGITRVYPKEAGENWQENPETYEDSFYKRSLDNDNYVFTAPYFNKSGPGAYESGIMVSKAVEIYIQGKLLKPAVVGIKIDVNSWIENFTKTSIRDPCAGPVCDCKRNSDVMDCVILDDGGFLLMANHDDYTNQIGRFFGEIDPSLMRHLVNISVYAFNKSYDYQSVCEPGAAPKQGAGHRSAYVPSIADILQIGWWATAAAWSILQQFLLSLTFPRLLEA
T1 sequence (P13806 961-1106 partner limits assumed, other chains not shown): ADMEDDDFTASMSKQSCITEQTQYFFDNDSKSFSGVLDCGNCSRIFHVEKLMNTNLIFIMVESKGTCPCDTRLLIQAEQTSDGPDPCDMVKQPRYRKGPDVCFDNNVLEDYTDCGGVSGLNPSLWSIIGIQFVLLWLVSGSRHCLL

| SMILES | IC50 [nM] |
| --- | --- |
| CC1=C(C(=O)OCCOC(=O)Cc2ccccc2)C(c2c(F)cccc2Cl)C2=C(CS(=O)(=O)c3ccccc3S2(=O)=O)N1 (stereo not drawn) [Compound 30] | 110 |

Same assay, conditions: Table 1, compounds of Formula I; 3H-nitrendipine displacement, rabbit heart membranes; read-out: Nitrendipine Binding Assay IC50

| SMILES | IC50 [nM] |
| --- | --- |
| COC(=O)C1=C(C)NC2=C(C1c1cccc(Cl)c1Cl)S(=O)(=O)c1ccccc1[S+]([O-])C2 (stereo not drawn) [Compound 7, 1H-[1,5]Benzodithiepino[3,2-b]pyridine-3-carboxylic acid, 4-(2,3-dichlorophenyl)-4,11-dihydro-2-methyl, methyl ester, 5,5,10-trioxide] | 8 |
| CC1=C(C(=O)OCCN(C)Cc2ccccc2)C(c2cccc(C(F)(F)F)c2F)C2=C(CS(=O)(=O)c3ccccc3S2(=O)=O)N1 (stereo not drawn) [Compound 14, 1H-[1,5]Benzodithiepino[3,2-b]pyridine-3-carboxylic acid, 4-[2-fluoro-3-(trifluoromethyl)phenyl]-4,11-dihydro-2-methyl, 2-[methyl(phenylmethyl)-amino]ethyl ester, 5,5,10,10-tetraoxide] | 58 |
| CC1=C(C(=O)OCCN(C)Cc2ccccc2)C(c2c(F)cccc2Cl)C2=C(CS(=O)(=O)c3ccccc3S2(=O)=O)N1 (stereo not drawn) [Compound 17, 1H-[1,5]Benzodithiepino[3,2-b]pyridine-3-carboxylic acid, 4-(2-chloro-6-fluorophenyl)-4,11-dihydro-2-methyl, 2-[methyl(phenylmethyl)amino]ethyl ester, 5,5,10,10-tetraoxide] | 62 |
| COC(=O)C1=C(C)NC2=C(C1c1ccccc1Cl)S(=O)(=O)c1ccccc1[S+]([O-])C2 (stereo not drawn) [Compound 1, 1H-[1,5]Benzodithiepino[3,2-b]pyridine-3-carboxylic acid, 4-(2-chlorophenyl)-4,11-dihydro-2-methyl, methyl ester, 5,5,10-trioxide] | 14 |
| CC1=C(C(=O)OCCN(C)Cc2ccccc2)C(c2cccc(Cl)c2Cl)C2=C(CS(=O)(=O)c3ccccc3S2(=O)=O)N1 (stereo not drawn) [Compound 2, 1H-[1,5]Benzodithiepino[3,2-b]pyridine-3-carboxylic acid, 4-(2,3-dichlorophenyl)-4,11-dihydro-2-methyl, 2-[methyl(phenylmethyl)amino]ethyl ester, 5,5,10,10-tetraoxide] | 20 |
| CC1=C(C(=O)OCCN(C)Cc2ccccc2)C(c2c(F)c(F)c(F)c(F)c2F)C2=C(CS(=O)(=O)c3ccccc3S2(=O)=O)N1 (stereo not drawn) [Compound 12, 1H-[1,5]Benzodithiepino[3,2-b]pyridine-3-carboxylic acid, 4,11-dihydro-2-methyl-4-(pentafluorophenyl), 2-[methyl(phenylmethyl)amino]ethyl ester, 5,5,10,10-tetraoxide] | 21 |
| COC(=O)C1=C(C)NC2=C(C1c1ccccc1Cl)S(=O)(=O)c1ccccc1S(=O)(=O)C2 (stereo not drawn) [Compound 5, 1H-[1,5]Benzodithiepino[3,2-b]pyridine-3-carboxylic acid, 4-(2-chlorophenyl)-4,11-dihydro-2-methyl, methyl ester, 5,5,10,10-tetraoxide] | 9 |
| COC(=O)C1=C(C)NC2=C(C1c1cccc(Cl)c1)S(=O)(=O)c1ccccc1[S+]([O-])C2 (stereo not drawn) [Compound 6, 1H-[1,5]Benzodithiepino[3,2-b]pyridine-3-carboxylic acid, 4-(3-chlorophenyl)-4,11-dihydro-2-methyl, methyl ester, 5,5,10-trioxide] | 20 |
| COC(=O)C1=C(C)NC2=C(C1c1cccc([N+](=O)[O-])c1)S(=O)(=O)c1ccccc1S(=O)(=O)C2 (stereo not drawn) [Compound 15, 1H-[1,5]Benzodithiepino[3,2-b]pyridine-3-carboxylic acid, 4,11-dihydro-2-methyl-4-(3-nitrophenyl), methyl ester, 5,5,10,10-tetraoxide] | 20 |
| COC(=O)C1=C(C)NC2=C(C1c1c(F)c(F)c(F)c(F)c1F)S(=O)(=O)c1ccccc1S(=O)(=O)C2 (stereo not drawn) [Compound 11, 1H-[1,5]Benzodithiepino[3,2-b]pyridine-3-carboxylic acid, 4,11-dihydro-2-methyl-4-(pentafluorophenyl), methyl ester, 5,5,10,10-tetraoxide] | 12 |
| CC1=C(C(=O)OCCN(C)Cc2ccccc2)C(c2ccccc2Cl)C2=C(CS(=O)(=O)c3ccccc3S2(=O)=O)N1 (stereo not drawn) [Compound 19, 1H-[1,5]Benzodithiepino[3,2-b]pyridine-3-carboxylic acid, 4-(2-chlorophenyl)-4,11-dihydro-2-methyl, 2-[methyl(phenylmethyl)amino]ethyl ester, 5,5,10,10-tetraoxide] | 18 |
| CC1=C(C(=O)OCCN(C)Cc2ccccc2)C(c2ccccc2[N+](=O)[O-])C2=C(CS(=O)(=O)c3ccccc3S2(=O)=O)N1 (stereo not drawn) [Compound 3, 1H-[1,5]Benzodithiepino[3,2-b]pyridine-3-carboxylic acid, 4,11-dihydro-2-methyl-4-(2-nitrophenyl), 2-[methyl(phenylmethyl)amino]ethyl ester, 5,5,10,10-tetraoxide] | 34 |

Same assay, conditions: Table 2, compounds of Formula II; 3H-nitrendipine displacement, rabbit heart membranes; read-out: Nitrendipine Binding IC50

| SMILES | IC50 [nM] |
| --- | --- |
| CC1=C(C(=O)OCCOC(=O)C(C)(C)C)C(c2c(F)cccc2Cl)C2=C(CS(=O)(=O)c3ccccc3S2(=O)=O)N1 (stereo not drawn) [Compound 28, 1H-[1,5]benzodithiepino[3,2-b]pyridine-3-carboxylic acid, 4-(2-chloro-6-fluorophenyl)-4,11-dihydro-2-methyl-, 2-(2,2-dimethyl-1-oxopropoxy)ethyl ester, 5,5,10,10-tetraoxide] | 370 |
| CC1=C(C(=O)OCCOC(=O)CCCCCCc2ccccc2)C(c2c(F)cccc2Cl)C2=C(CS(=O)(=O)c3ccccc3S2(=O)=O)N1 (stereo not drawn) [Compound 35] | 60 |
| CC1=C(C(=O)OCCOC(=O)C2CCCCC2)C(c2c(F)cccc2Cl)C2=C(CS(=O)(=O)c3ccccc3S2(=O)=O)N1 (stereo not drawn) [Compound 24, 1H-[1,5]benzodithiepino[3,2-b]pyridine-3-carboxylic acid, 4-(2-chloro-6-fluorophenyl)-4,11-dihydro-2-methyl-, 2-[(cyclohexylcarbonyl)oxy]ethyl ester, 5,5,10,10-tetraoxide] | 43 |
| CC1=C(C(=O)OCCOC(=O)C(C)c2ccc(CC(C)C)cc2)C(c2c(F)cccc2Cl)C2=C(CS(=O)(=O)c3ccccc3S2(=O)=O)N1 (stereo not drawn) [Compound 32] | 618 |
| CC1=C(C(=O)OCc2oc(=O)oc2-c2ccccc2)C(c2c(F)cccc2Cl)C2=C(CS(=O)(=O)c3ccccc3S2(=O)=O)N1 (stereo not drawn) [Compound 40] | 11 |
| COc1ccc2cc([C@H](C)C(=O)OCCOC(=O)C3=C(C)NC4=C(C3c3c(F)cccc3Cl)S(=O)(=O)c3ccccc3S(=O)(=O)C4)ccc2c1 (stereo partly drawn) [Compound 31, 1H-[1,5]benzodithiepino[3,2-b]pyridine-3-carboxylic acid, 4-(2-chloro-6-fluorophenyl)-4,11-dihydro-2-methyl-, 2-[[(2S)-2-(6-methoxy-2-naphthalenyl)-1-oxopropyl]oxy]ethyl ester, 5,5,10,10-tetraoxide] | 209 |
| CC1=C(C(=O)OCCCOC(=O)c2ccccc2)C(c2c(F)cccc2Cl)C2=C(CS(=O)(=O)c3ccccc3S2(=O)=O)N1 (stereo not drawn) [Compound 34] | 188 |
| CC1=C(C(=O)OCCO)C(c2c(F)cccc2Cl)C2=C(CS(=O)(=O)c3ccccc3S2(=O)=O)N1 (stereo not drawn) [Compound 21] | 6070 |
| CC1=C(C(=O)OCCNC(=O)OC(C)(C)C)C(c2c(F)cccc2Cl)C2=C(CS(=O)(=O)c3ccccc3S2(=O)=O)N1 (stereo not drawn) [Compound 25, 1H-[1,5]benzodithiepino[3,2-b]pyridine-3-carboxylic acid, 4-(2-chloro-6-fluorophenyl)-4,11-dihydro-2-methyl-, 2-[[(1,1-dimethylethoxy)carbonyl]amino]ethyl ester, 5,5,10,10-tetraoxide] | 420 |
| CC1=C(C(=O)OCCOC(=O)/C=C/c2ccccc2)C(c2c(F)cccc2Cl)C2=C(CS(=O)(=O)c3ccccc3S2(=O)=O)N1 (stereo not drawn) [Compound 37, 1H-[1,5]benzodithiepino[3,2-b]pyridine-3-carboxylic acid, 4-(2-chloro-6-fluorophenyl)-4,11-dihydro-2-methyl-, 2-[[(2E)-1-oxo-3-phenyl-2-propenyl]oxy]ethyl ester, 5,5,10,10-tetraoxide] | 101 |
| CC1=C(C(=O)OCCOC(=O)c2ccccc2)C(c2c(F)cccc2Cl)C2=C(CS(=O)(=O)c3ccccc3S2(=O)=O)N1 (stereo not drawn) [Compound 23, 1H-[1,5]benzodithiepino[3,2-b]pyridine-3-carboxylic acid, 4-(2-chloro-6-fluorophenyl)-4,11-dihydro-2-methyl-, 2-(benzoyloxy)ethyl ester, 5,5,10,10-tetraoxide] | 30 |
| CC1=C(C(=O)OCCNC(=O)c2ccccc2)C(c2c(F)cccc2Cl)C2=C(CS(=O)(=O)c3ccccc3S2(=O)=O)N1 (stereo not drawn) [Compound 29, 1H-[1,5]benzodithiepino[3,2-b]pyridine-3-carboxylic acid, 4-(2-chloro-6-fluorophenyl)-4,11-dihydro-2-methyl-, 2-(benzoylamino)ethyl ester, 5,5,10,10-tetraoxide] | 859 |
| CC1=C(C(=O)OCCN)C(c2c(F)cccc2Cl)C2=C(CS(=O)(=O)c3ccccc3S2(=O)=O)N1 (stereo not drawn) [Compound 26, 1H-[1,5]benzodithiepino[3,2-b]pyridine-3-carboxylic acid, 4-(2-chloro-6-fluorophenyl)-4,11-dihydro-2-methyl-, 2-aminoethyl ester, 5,5,10,10-tetraoxide] | 2000 |
| CC1=C(C(=O)OCCCO)C(c2c(F)cccc2Cl)C2=C(CS(=O)(=O)c3ccccc3S2(=O)=O)N1 (stereo not drawn) [Compound 33] | 1440 |
